Patent publication US8338475B2, “Anti-proliferative pharmaceutical composition” (BioCis Pharma Oy, priority 2003, dated 2012)
Several values for one entry are separate records, joined by “and”; a condition that tells them apart may be missing. Equal values may be shown once.

What was measured:
cell lines = experiment: Proliferation assay, statements on the cell lines as a group; format: cell-based, human; settings: all three studied transformed cell lines; 44 h; pH 6.5 (FIG. 4)
Protocol: The cells were cultured for 44 h with or without 2 μM camptothecin (CPT) at pH 6.5 or 7.4 conditions. After a 2-h incubation with the proliferation assay reagent, the absorbance at 490 nm was recorded. Cells were cultured in a density of 15,000 cells (K562, HT-1080, HK293) or 75,000 cells (the other cells) in a volume of 150 μl.
Three cell lines were cultured with cis-UCA and/or 1 μM camptothecin at a density of […] per well (100 μl) for 44 h in pH 6.5 medium. Blank wells with all the cis-UCA concentrations but without cells were included and their absorbance subtracted from those of the corresponding test wells.
Transformed tumour cell lines WM 266-4 and A2058 (cutaneous melanoma), HT-1080 (epithelial fibrosarcoma), HeLa (epithelial adenocarcinoma of cervix), HK293 (kidney epithelial cells) and non-transformed cell line HSF (skin fibroblast from a healthy volunteer donor) of human origin have been described earlier (Li et al. 2003). […]
(§1) The proliferation activity of cultured cell lines was quantified in flat-bottom 96-well plates with a modified colorimetric assay based on a tetrazolium derivative (CellTiter 96 Aqueous One Solution Cell Proliferation Assay, Promega). The cells were cultured in the presence of camptothecin and/or cis-UCA for 20 to 92 h, then the proliferation reagent was added for 2 h, and the absorbance at 490 nm was measured in a plate reader. […]

[1] = system: HeLa (epithelial adenocarcinoma of cervix); experiment: Proliferation assay (CellTiter 96), HeLa cells; format: cell-based, human; settings: pH 6.5, 44 h, cis-UCA 10 mM, CPT 2 μM, 15,000 cells per 100 μl
From the text: (§2) Transformed tumour cell lines WM 266-4 and A2058 (cutaneous melanoma), HT-1080 (epithelial fibrosarcoma), HeLa (epithelial adenocarcinoma of cervix), HK293 (kidney epithelial cells) and non-transformed cell line HSF (skin fibroblast from a healthy volunteer donor) of human origin have been described earlier (Li et al. 2003). The K562 (chronic myelogenous leukemia) cells were purchased from American Type Culture Collection.
(§3) The cells were maintained in logarithmic growth phase in IMDM medium (Invitrogen, Paisley, UK) supplemented with 10% fetal calf serum and antibiotics in a humidified incubator at +37° C., 5% CO2. The adherent cells lines were harvested for experiments with 0.25% trypsin-EDTA in PBS for 5 min and then resuspended and washed in medium. After counting of viable cells, 15,000 to 75,000 cells were transferred into flat-bottom 96-well cell culture plates in a volume of 100 or 150 μl.
as §1

A2058 tumours = experiment: Haematoxylin/eosin staining of tumour sections (necrosis); format: in vivo, SCID/SCID mice; settings: tumours collected after 16 days; 30 mM cis-UCA, 1 μM CPT intratumoural
From the text: (§4) After 16 days from the first injection, all the animals were sacrificed with CO2, and the tumours were collected and fixed in formalin for further studies. In groups A, C, and D, one mouse was sacrificed before the end of the experiment because of poor development of the tumour (no measurable tumour at day 0). One animal in group B was sacrificed prematurely after it had severly scratched the tumour. Data from these animals were not included in the calculation of the tumour size results. All the removed animals were female mice. Immunohistochemical data was obtained also from the removed mice except from group B. The experiments were conducted under a protocol approved by the local ethics committee.
(§5) Paraffin sections of the tumours were stained with haematoxylin/eosin following standard procedures for an overall picture. Ki67 was stained to detect the amount of proliferating cells. The staining procedure for the Ki67 primary antibody (Dako, Klostrup, Denmark) at 1:50 dilution and secondary antibody (StreptABComplex/HRP Duet Mouse/Rabbit, Dako) at 1:100 dilution followed the instructions provided by the manufacturer. Two sections from each tumour was examined.

[2] = system: HK293 (kidney epithelial cells); experiment: Proliferation assay (CellTiter 96), HK293 cells; format: cell-based, human; settings: pH 6.5, 44 h, cis-UCA 10 mM, CPT 2 μM, 15,000 cells per 100 μl
From the text: as §2, §3, §1

[3] = system: Ki67 (proliferating cells) in A2058 tumours; experiment: Immunohistochemistry of tumours, Ki67 staining; format: in vivo, SCID/SCID mice; settings: tumours collected after 16 days; 30 mM cis-UCA, 1 μM CPT intratumoural
From the text: as §4, §5

[4] = system: A2058 (cutaneous melanoma); experiment: Proliferation assay (CellTiter 96), A2058 cells; format: cell-based, human
Protocol: The cells were cultured in triplicate with or without 2 μM camptothecin (CPT) or 10 mM cis-UCA in a density of 15,000 cells per […]. A, Cells taken from normal pH 7.4 cultures to test conditions at pH 6.5. B, Cells cultured in low pH 6.7 adaptation medium for 3 d, then tested at pH 6.5. C, Cells cultured and tested at pH 7.4.
Proliferation was measured in a 44-h assay at pH 6.5 with 30 μM to 30 mM cis-UCA and 2 μM camptothecin. Both proliferation (A) and calculated percentage inhibition data (B) are presented.
as §2, §3
The proliferation activity of cultured cell lines was quantified in flat-bottom 96-well plates with a modified colorimetric assay based on a tetrazolium derivative (CellTiter 96 Aqueous One Solution Cell Proliferation Assay, Promega). The cells were cultured in the presence of camptothecin and/or cis-UCA for 20 to 92 h, then the proliferation reagent was added for 2 h, and the absorbance at 490 nm was measured in a plate reader. Blank absorption values in wells containing medium without cells were subtracted before comparison analysis.
The cell lines were tested in a 44-h culture at pH 6.5 with or without 2 μM camptothecin and 10 mM cis-UCA at 15,000 cells per 100 μl total volume. […] In order to further characterise the effective anti-proliferative concentration range of cis-UCA, proliferation was measured in a 44-h assay at pH 6.5 with cis-UCA concentration ranging from 30 μM to 30 mM.

HSF (skin fibroblast) = experiment: Proliferation assay (CellTiter 96), HSF cells; format: cell-based, human; settings: pH 6.5, 44 h, cis-UCA 10 mM, CPT 2 μM, 15,000 cells per 100 μl
From the text: as §2, §3, §1

Q: Which results are given for `O=C(O)/C=C\c1c[nH]cn1` [cis-UCA, cis-urocanic acid]?
A: concentration at which proliferation was inhibited (cell lines): ≥ 3 mM; Inhibition of proliferation (mean percentage inhibition ± SD compared with untreated control) [1]: 50 ± 1.7%; Necrosis (histological sections with haematoxylin/eosin staining) (A2058 tumours): Dead cells and large necrotic areas were detected and yes; Inhibition of proliferation (mean percentage inhibition ± SD compared with untreated control) [2]: 22 ± 0.1%; Ki67+ (number of positive tumours/total analysed) [3]: none of the analysed five tumours and 0/5; percentage inhibition of proliferation ([4]; 10 mM cis-UCA alone, cells from pH 7.4 cultures tested at pH 6.5, 92 h (FIG. 2A)): 83%; percentage inhibition of proliferation ([4]; 10 mM cis-UCA, cells adapted to pH 6.7 for 3 days, tested at pH 6.5, 92 h (FIG. 2B)): 87%; concentration required to produce measurable inhibition of proliferation ([4]; 44-h assay at pH 6.5, 30 μM to 30 mM tested (FIG. 3)): at least 3 mM; Inhibition of proliferation (mean percentage inhibition ± SD compared with untreated control) ([4]; pH 6.5, 44 h, cis-UCA 10 mM, CPT 2 μM, 15,000 cells per 100 μl): 45 ± 4.4%; Inhibition of proliferation (mean percentage inhibition ± SD compared with untreated control) (HSF (skin fibroblast)): 41 ± 1.1%
